From ChEMBL document CHEMBL1201862, “PubChem BioAssay data set” (2004)
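96-well plates; 48 h exposure; 5 concentrations. Endpoints by linear interpolation between flanking doses. Not reached: highest tested concentration assigned. Here, GI50 denotes the concentration required for 50% inhibition of growth.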 Active and inactive are the calls of the source. Cut-off read from the data, not from the text of the source: active = GI50 up to about 1.1 µM and inactive = higher.

Legend:
Test in all cases: growth of human tumour cells (NCI), 48 h
KM12 = tested on: KM12
COLO 205 = tested on: COLO 205
NCI-H522 = tested on: NCI-H522
Malme-3M = tested on: Malme-3M
SK-MEL-28 = tested on: SK-MEL-28
NCI-H460 = tested on: NCI-H460
NCI-H23 = tested on: NCI-H23
MOLT-4 = tested on: MOLT-4
OVCAR-8 = tested on: OVCAR-8
ACHN = tested on: ACHN
OVCAR-3 = tested on: OVCAR-3
M14 = tested on: M14
IGROV-1 = tested on: IGROV-1
SNB-19 = tested on: SNB-19
SF-539 = tested on: SF-539
HOP-92 = tested on: HOP-92
RPMI-8226 = tested on: RPMI-8226

| Structure (SMILES) | GI50 (KM12) | GI50 (COLO 205) | GI50 (NCI-H522) | GI50 (Malme-3M) | GI50 (SK-MEL-28) | GI50 (NCI-H460) | GI50 (NCI-H23) | GI50 (MOLT-4) | GI50 (OVCAR-8) | GI50 (ACHN) | GI50 (OVCAR-3) | GI50 (M14) | GI50 (IGROV-1) | GI50 (SNB-19) | GI50 (SF-539) | GI50 (HOP-92) | GI50 (RPMI-8226) |
| --- | --- | --- | --- | --- | --- | --- | --- | --- | --- | --- | --- | --- | --- | --- | --- | --- | --- |
| O=S(O)CCCCSSCCCCSSCCCCS(=O)O | 76 µM (inactive) | 22.6 µM (inactive) | 13 µM (inactive) | 15.8 µM (inactive) | 20.7 µM (inactive) | 53.1 µM (inactive) | 36 µM (inactive) | 0.851 µM (active) | 18.9 µM (inactive) | 40.9 µM (inactive) | 33.9 µM (inactive) | 11.2 µM (inactive) | > 100 µM (inactive) | > 100 µM (inactive) | 66.2 µM (inactive) |  |  |
| COC1OC(CO)C(O)C(OC(C)=O)C1NC(=O)N(CCCl)N=O (stereo not given) | > 100 µM (inactive) | > 100 µM (inactive) | > 100 µM (inactive) | > 100 µM (inactive) | > 100 µM (inactive) | 83.6 µM (inactive) | > 100 µM (inactive) | 95.9 µM (inactive) | > 100 µM (inactive) | > 100 µM (inactive) | > 100 µM (inactive) | > 100 µM (inactive) | > 100 µM (inactive) | > 100 µM (inactive) | 34.3 µM (inactive) |  |  |
| CCN1CC2(C)CC[C@@H](OC)C34[C@@H]2[C@H](OC(C)=O)C2(OCO[C@@]25C[C@H](OC)C2C[C@]3(O)[C@@H]5[C@H]2O)[C@H]14 | > 100 µM (inactive) | > 100 µM (inactive) | > 100 µM (inactive) | > 100 µM (inactive) | > 100 µM (inactive) | > 100 µM (inactive) | > 100 µM (inactive) |  | > 100 µM (inactive) |  | > 100 µM (inactive) | > 100 µM (inactive) |  | > 100 µM (inactive) | > 100 µM (inactive) | > 100 µM (inactive) |  |
| CC(=O)Nc1ccc(/C=N\N2C(=O)c3ccccc3C2=O)cc1 | > 100 µM (inactive) |  |  | > 100 µM (inactive) | > 100 µM (inactive) | > 100 µM (inactive) | > 100 µM (inactive) | > 100 µM (inactive) | > 100 µM (inactive) | > 100 µM (inactive) | > 100 µM (inactive) | > 100 µM (inactive) | > 100 µM (inactive) | > 100 µM (inactive) | > 100 µM (inactive) | > 100 µM (inactive) | > 100 µM (inactive) |
| Cc1cccc(NC(=O)/C(=N\NC(C)(C)C)C2NC(=S)NC2=O)c1C (stereo not given) | > 100 µM (inactive) | > 100 µM (inactive) |  | > 100 µM (inactive) |  | > 100 µM (inactive) |  | > 100 µM (inactive) | > 100 µM (inactive) | > 100 µM (inactive) | > 100 µM (inactive) | > 100 µM (inactive) | > 100 µM (inactive) | > 100 µM (inactive) | > 100 µM (inactive) |  | > 100 µM (inactive) |
| C=C(/C=C/C=C(\CO)CCC=C(C)C)[C@H]1CCC2([C@H](CCCO)/C(=C(/C)C=O)CC[C@]2(C)O)[C@H]1O (stereo not given in full) | > 100 µM (inactive) | 26.3 µM (inactive) |  | > 100 µM (inactive) | > 100 µM (inactive) | 56.8 µM (inactive) | > 100 µM (inactive) | > 100 µM (inactive) | > 100 µM (inactive) | > 100 µM (inactive) | > 100 µM (inactive) | > 100 µM (inactive) | > 100 µM (inactive) | > 100 µM (inactive) | 83.4 µM (inactive) | 3.56 µM (inactive) | > 100 µM (inactive) |
| Cc1nnc2n1N=C(c1ccccc1)C(c1ccccc1)S2 (stereo not given) | 42.1 µM (inactive) | 21.3 µM (inactive) | 24.6 µM (inactive) | 64.1 µM (inactive) |  | 34.6 µM (inactive) | 24.3 µM (inactive) | 34.1 µM (inactive) | 39.4 µM (inactive) | 33.2 µM (inactive) | 36.9 µM (inactive) | 16.3 µM (inactive) | 97.5 µM (inactive) | 46.3 µM (inactive) | 31 µM (inactive) | 60.4 µM (inactive) | 43.6 µM (inactive) |
| COc1ccccc1-n1c(NN)nc2ccc(Br)cc2c1=O | 38.6 µM (inactive) | 45.9 µM (inactive) | 16.9 µM (inactive) | 39.4 µM (inactive) | 40.3 µM (inactive) | 42.8 µM (inactive) | 28.1 µM (inactive) | 26.2 µM (inactive) | 34 µM (inactive) | 36.5 µM (inactive) | 51.2 µM (inactive) | 40.6 µM (inactive) | 38.2 µM (inactive) | 37 µM (inactive) | 27.9 µM (inactive) |  | 41.2 µM (inactive) |
| N/C=N/S(=O)(=O)c1ccc(NC(=O)COC(=O)c2cccc3c(=O)c4ccccc4[nH]c23)cc1 | > 100 µM (inactive) | > 100 µM (inactive) | > 100 µM (inactive) | > 100 µM (inactive) | > 100 µM (inactive) | > 100 µM (inactive) | > 100 µM (inactive) | > 100 µM (inactive) | > 100 µM (inactive) | > 100 µM (inactive) | > 100 µM (inactive) | 67.8 µM (inactive) | > 100 µM (inactive) | > 100 µM (inactive) | > 100 µM (inactive) |  | > 100 µM (inactive) |
